In ChEMBL document CHEMBL1201862, “PubChem BioAssay data set” (2004):
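Test compounds were applied to cells in 96-well plates for 48 hours at 5 doses. GI50 is the concentration that inhibits growth by half.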 Calls of active or inactive are those of the source. Rule as the data show it: active = GI50 up to about 1.1 µM and inactive = higher.

What was measured:
Assay in all cases: NCI tumour cell line growth inhibition, 48 h
IGROV-1 = tested on: IGROV-1
COLO 205 = tested on: COLO 205
HCT-116 = tested on: HCT-116
NCI-H226 = tested on: NCI-H226
SF-539 = tested on: SF-539
SNB-19 = tested on: SNB-19
SNB-78 = tested on: SNB-78
KM-20L2 = tested on: KM-20L2
A498 = tested on: A498
DU-145 = tested on: DU-145
HCC 2998 = tested on: HCC 2998
EKVX = tested on: EKVX
LXFL 529 = tested on: LXFL 529
UACC-62 = tested on: UACC-62
HOP-18 = tested on: HOP-18
HOP-92 = tested on: HOP-92
DMS-273 = tested on: DMS-273
ACHN = tested on: ACHN
M14 = tested on: M14
NCI-H522 = tested on: NCI-H522
KM12 = tested on: KM12
OVCAR-8 = tested on: OVCAR-8
SR = tested on: SR
786-0 = tested on: 786-0
HCT-15 = tested on: HCT-15
DLD-1 = tested on: DLD-1
CCRF-CEM = tested on: CCRF-CEM
TK-10 = tested on: TK-10
HOP-62 = tested on: HOP-62
CAKI-1 = tested on: CAKI-1
SW-620 = tested on: SW-620
A549 = tested on: A549
RPMI-8226 = tested on: RPMI-8226
MOLT-4 = tested on: MOLT-4
SF-295 = tested on: SF-295
HT-29 = tested on: HT-29
HL-60 = tested on: HL-60
OVCAR-4 = tested on: OVCAR-4
SK-MEL-2 = tested on: SK-MEL-2
SF-268 = tested on: SF-268
UO-31 = tested on: UO-31
SNB-75 = tested on: SNB-75
U-251 = tested on: U-251
DMS-114 = tested on: DMS-114
RXF 393 = tested on: RXF 393
NCI-H460 = tested on: NCI-H460
UACC-257 = tested on: UACC-257
K562 = tested on: K562
SK-MEL-28 = tested on: SK-MEL-28
OVCAR-5 = tested on: OVCAR-5
Malme-3M = tested on: Malme-3M
SK-OV-3 = tested on: SK-OV-3
LOX IMVI = tested on: LOX IMVI
M19-MEL = tested on: M19-MEL
OVCAR-3 = tested on: OVCAR-3
SK-MEL-5 = tested on: SK-MEL-5
NCI-H23 = tested on: NCI-H23
SN12C = tested on: SN12C

## O=C1C(=Cc2c(O)cc(O)cc2O)C(=O)c2ccccc21
IGROV-1
  GI50: > 43.5 µM (inactive)
COLO 205
  GI50: > 41.5 µM (inactive)
HCT-116
  GI50: > 39.3 µM (inactive)
NCI-H226
  GI50: 36 µM (inactive)
SF-539
  GI50: > 42.7 µM (inactive)
SNB-19
  GI50: > 42.6 µM (inactive)
SNB-78
  GI50: 23.8 µM (inactive)
KM-20L2
  GI50: > 43.5 µM (inactive)
A498
  GI50: 45.1 µM (inactive)
DU-145
  GI50: 19.1 µM (inactive)
HCC 2998
  GI50: > 41.9 µM (inactive)
EKVX
  GI50: > 79.8 µM (inactive)
LXFL 529
  GI50: > 43.5 µM (inactive)
UACC-62
  GI50: > 40.5 µM (inactive)
HOP-18
  GI50: 27.4 µM (inactive)
HOP-92
  GI50: > 38.5 µM (inactive)
DMS-273
  GI50: > 100 µM (inactive)
ACHN
  GI50: > 40.8 µM (inactive)
M14
  GI50: > 43.3 µM (inactive)
NCI-H522
  GI50: > 46 µM (inactive)
KM12
  GI50: > 36.7 µM (inactive)
OVCAR-8
  GI50: > 41.7 µM (inactive)
SR
  GI50: 13.6 µM (inactive)
786-0
  GI50: > 42.1 µM (inactive)
HCT-15
  GI50: > 46.8 µM
DLD-1
  GI50: > 40.6 µM (inactive)
CCRF-CEM
  GI50: 29.9 µM (inactive)
TK-10
  GI50: > 46.6 µM (inactive)
HOP-62
  GI50: > 100 µM (inactive)
CAKI-1
  GI50: > 45.9 µM (inactive)
SW-620
  GI50: > 42.1 µM (inactive)
A549
  GI50: > 100 µM (inactive)
RPMI-8226
  GI50: 29 µM (inactive)
MOLT-4
  GI50: 39.8 µM (inactive)
SF-295
  GI50: > 41.9 µM (inactive)
HT-29
  GI50: > 42.1 µM (inactive)
HL-60
  GI50: 16.8 µM (inactive)
OVCAR-4
  GI50: > 48.2 µM (inactive)
SK-MEL-2
  GI50: > 40.1 µM (inactive)
SF-268
  GI50: > 45.4 µM (inactive)
UO-31
  GI50: > 100 µM (inactive)
SNB-75
  GI50: 26.3 µM (inactive)
U-251
  GI50: > 42.9 µM (inactive)
DMS-114
  GI50: > 100 µM (inactive)
RXF 393
  GI50: 14.3 µM (inactive)
NCI-H460
  GI50: > 45.5 µM (inactive)
UACC-257
  GI50: > 42.5 µM (inactive)
K562
  GI50: > 51.8 µM (inactive)
SK-MEL-28
  GI50: > 45.8 µM (inactive)
OVCAR-5
  GI50: > 43 µM (inactive)
Malme-3M
  GI50: > 44.6 µM (inactive)
SK-OV-3
  GI50: > 100 µM (inactive)
LOX IMVI
  GI50: 15.4 µM (inactive)
M19-MEL
  GI50: > 38.5 µM (inactive)
OVCAR-3
  GI50: > 40.6 µM (inactive)
SK-MEL-5
  GI50: > 100 µM (inactive)
NCI-H23
  GI50: > 39.4 µM (inactive)
SN12C
  GI50: 19.5 µM (inactive)

## COc1ccccc1NC(=O)C1=C(C)NC(C)=C(C(=O)Nc2ccccc2OC)C1C1=CC=COC1
IGROV-1
  GI50: 10.8 µM (inactive)
COLO 205
  GI50: 57 µM (inactive)
HCT-116
  GI50: 4.53 µM (inactive)
NCI-H226
  GI50: > 100 µM (inactive)
SF-539
  GI50: 12.2 µM (inactive)
SNB-19
  GI50: 19.1 µM (inactive)
SNB-78
  GI50: 23.3 µM (inactive)
KM-20L2
  GI50: 6.07 µM (inactive)
A498
  GI50: 6.17 µM (inactive)
HCC 2998
  GI50: 12.3 µM (inactive)
EKVX
  GI50: 10.8 µM (inactive)
LXFL 529
  GI50: 11.1 µM (inactive)
UACC-62
  GI50: 3.3 µM (inactive)
HOP-18
  GI50: 28.5 µM (inactive)
HOP-92
  GI50: 25.9 µM (inactive)
DMS-273
  GI50: 6.81 µM (inactive)
ACHN
  GI50: 9.23 µM (inactive)
M14
  GI50: 5.2 µM (inactive)
KM12
  GI50: 9.14 µM (inactive)
OVCAR-8
  GI50: 14.6 µM (inactive)
786-0
  GI50: 11.5 µM (inactive)
HCT-15
  GI50: 4.59 µM
DLD-1
  GI50: 11.5 µM (inactive)
CCRF-CEM
  GI50: 7.87 µM (inactive)
TK-10
  GI50: 16.5 µM (inactive)
HOP-62
  GI50: 27.5 µM (inactive)
CAKI-1
  GI50: 4.65 µM (inactive)
SW-620
  GI50: 6.7 µM (inactive)
A549
  GI50: 18.5 µM (inactive)
RPMI-8226
  GI50: 13.2 µM (inactive)
MOLT-4
  GI50: 13.3 µM (inactive)
SF-295
  GI50: 6.73 µM (inactive)
HT-29
  GI50: 4.46 µM (inactive)
HL-60
  GI50: 3.94 µM (inactive)
OVCAR-4
  GI50: 30.5 µM (inactive)
SF-268
  GI50: 13.6 µM (inactive)
UO-31
  GI50: 25.9 µM (inactive)
SNB-75
  GI50: 23 µM (inactive)
U-251
  GI50: 9.71 µM (inactive)
DMS-114
  GI50: 7.24 µM (inactive)
NCI-H460
  GI50: 3.92 µM (inactive)
UACC-257
  GI50: 13.6 µM (inactive)
K562
  GI50: 3.78 µM (inactive)
SK-MEL-28
  GI50: 18.8 µM (inactive)
OVCAR-5
  GI50: 36.4 µM (inactive)
Malme-3M
  GI50: 5.68 µM (inactive)
SK-OV-3
  GI50: 10.4 µM (inactive)
M19-MEL
  GI50: 8.97 µM (inactive)
OVCAR-3
  GI50: 3.11 µM (inactive)
SK-MEL-5
  GI50: 5.06 µM (inactive)
NCI-H23
  GI50: 23.9 µM (inactive)
SN12C
  GI50: 60.7 µM (inactive)
